Data on 15 compounds can be found in PubChem BioAssay AID248 (DTP/NCI, 2004).

The experiment relates to L1210 leukemia ip in BDF1 mice, survival T/C. The experiment in a line: NCI In Vivo Anticancer Drug Screen. Data for tumor model L1210 Leukemia (intraperitoneal) in B6D2F1 (BDF1) mice. Particulars: endpoint: mean survival time, higher = longer survival. The gist of the method:
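Tumor cells were implanted, animals were treated, and survival was followed. The result divides the treated measurement by the vehicle-control measurement.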

The mark [1] stands for this setting: dose: 100.0 mg/kg/injection, schedule: Q01DX001 (ip), vehicle: Klucel (hydroxypropylcellulose) (HPC).
Where [2] appears, read: dose: 200.0 mg/kg/injection, schedule: Q01DX001 (ip), vehicle: Klucel (hydroxypropylcellulose) (HPC).
The mark [3] stands for this setting: dose: 400.0 mg/kg/injection, schedule: Q01DX001 (ip), vehicle: Klucel (hydroxypropylcellulose) (HPC).
The mark [4] stands for this setting: dose: 100.0 mg/kg/injection, schedule: Q04DX003 (ip), vehicle: saline with Tween-80.
Where [5] appears, read: dose: 200.0 mg/kg/injection, schedule: Q04DX003 (ip), vehicle: saline with Tween-80.
Where [6] appears, read: dose: 400.0 mg/kg/injection, schedule: Q04DX003 (ip), vehicle: saline with Tween-80.

“And” between values parts separate entries of the source, which are not always exact repeats. Equal entries are not always repeated. Inconclusive results and toxic doses are left out.

On to `O=[N+]([O-])c1cc2c(cc1Br)-c1ccccc1C2`, for which the T/C runs as follows: (dose: 100.0 mg/kg/injection, schedule: Q01DX005 (ip), vehicle: Klucel (hydroxypropylcellulose) (HPC)) 98 % of control; (dose: 100.0 mg/kg/injection, schedule: Q04DX002 (ip), vehicle: Klucel (hydroxypropylcellulose) (HPC)) 93 % of control; (dose: 200.0 mg/kg/injection, schedule: Q01DX005 (ip), vehicle: Klucel (hydroxypropylcellulose) (HPC)) 94 % of control; (dose: 200.0 mg/kg/injection, schedule: Q04DX002 (ip), vehicle: Klucel (hydroxypropylcellulose) (HPC)) 111 % of control; (dose: 400.0 mg/kg/injection, schedule: Q01DX005 (ip), vehicle: Klucel (hydroxypropylcellulose) (HPC)) 122 % of control; (dose: 400.0 mg/kg/injection, schedule: Q04DX002 (ip), vehicle: Klucel (hydroxypropylcellulose) (HPC)) 117 % of control.
With `Nc1nc(Cl)cc2c1ncn2C1OC(CO)C(O)C1O` (centres undefined), the T/C was 105 % of control (dose: 100.0 mg/kg/injection, schedule: Q01DX005 (ip), vehicle: saline) and 107 % of control (dose: 200.0 mg/kg/injection, schedule: Q01DX005 (ip), vehicle: saline).
Take `O=P(O)(Oc1cccc(Cl)c1)Oc1cccc(Cl)c1`: the T/C runs as follows: (dose: 100.0 mg/kg/injection, schedule: Q04DX002 (ip), vehicle: saline with Tween-80) 115 % of control; (dose: 200.0 mg/kg/injection, schedule: Q04DX002 (ip), vehicle: saline with Tween-80) 104 % of control.
Turning to `NCCSCCc1ccccc1`, the T/C (dose: 25.0 mg/kg/injection, schedule: Q04DX002 (ip), vehicle: saline with Tween-80) is 100 % of control and the T/C (dose: 50.0 mg/kg/injection, schedule: Q04DX002 (ip), vehicle: saline with Tween-80) was 103 % of control.
With `CCOC(=O)/C=C(\C)N(C(=O)N(CCCl)N=O)c1ccccc1`, the T/C by setting is: (dose: 0.12 mg/kg/injection, schedule: Q01DX009 (ip), vehicle: Klucel (hydroxypropylcellulose) (HPC)) 118 % of control; (dose: 0.5 mg/kg/injection, schedule: Q01DX009 (ip), vehicle: Klucel (hydroxypropylcellulose) (HPC)) 159 % of control; (dose: 1.0 mg/kg/injection, schedule: Q01DX001 (ip), vehicle: carboxymethylcellulose (CMC)) 103 % of control; (dose: 1.0 mg/kg/injection, schedule: Q01DX009 (ip), vehicle: Klucel (hydroxypropylcellulose) (HPC)) 232 % of control; (dose: 2.0 mg/kg/injection, schedule: Q01DX001 (ip), vehicle: carboxymethylcellulose (CMC)) 103 % of control and 119 % of control; (dose: 4.0 mg/kg/injection, schedule: Q01DX001 (ip), vehicle: carboxymethylcellulose (CMC)) 109 % of control. For the same compound, the T/C runs as follows: (dose: 6.0 mg/kg/injection, schedule: Q01DX009 (ip), vehicle: carboxymethylcellulose (CMC)) 161 % of control; (dose: 8.0 mg/kg/injection, schedule: Q01DX001 (ip), vehicle: carboxymethylcellulose (CMC)) 104 % of control; (dose: 8.8 mg/kg/injection, schedule: Q01DX009 (ip), vehicle: carboxymethylcellulose (CMC)) 163 % of control; (dose: 13.0 mg/kg/injection, schedule: Q01DX009 (ip), vehicle: Klucel (hydroxypropylcellulose) (HPC)) 120 % of control; (dose: 13.3 mg/kg/injection, schedule: Q01DX009 (ip), vehicle: carboxymethylcellulose (CMC)) 121 % of control; (dose: 15.0 mg/kg/injection, schedule: Q01DX001 (ip), vehicle: carboxymethylcellulose (CMC)) 153 % of control. Besides, the T/C runs as follows: (dose: 20.0 mg/kg/injection, schedule: Q01DX009 (ip), vehicle: carboxymethylcellulose (CMC)) 110 % of control; (dose: 30.0 mg/kg/injection, schedule: Q01DX001 (ip), vehicle: carboxymethylcellulose (CMC)) 104 % of control and 231 % of control and 86 % of control; (dose: 30.0 mg/kg/injection, schedule: Q01DX009 (ip), vehicle: Klucel (hydroxypropylcellulose) (HPC)) 90 % of control; (dose: 30.0 mg/kg/injection, schedule: Q01DX009 (ip), vehicle: carboxymethylcellulose (CMC)) 100 % of control; (dose: 45.0 mg/kg/injection, schedule: Q01DX001 (ip), vehicle: carboxymethylcellulose (CMC)) 155 % of control; (dose: 60.0 mg/kg/injection, schedule: Q01DX001 (ip), vehicle: carboxymethylcellulose (CMC)) 109 % of control and 204 % of control. Moreover, the T/C (dose: 120.0 mg/kg/injection, schedule: Q01DX001 (ip), vehicle: carboxymethylcellulose (CMC)) is 114 % of control.
As for `CC(OC(=O)c1ccccc1C(=O)O)c1ccccc1` (centres undefined), the T/C is 93 % of control (dose: 100.0 mg/kg/injection, schedule: Q01DX001 (ip), vehicle: carboxymethylcellulose (CMC)); 96 % of control (dose: 200.0 mg/kg/injection, schedule: Q01DX001 (ip), vehicle: carboxymethylcellulose (CMC)); 96 % of control (dose: 400.0 mg/kg/injection, schedule: Q01DX001 (ip), vehicle: carboxymethylcellulose (CMC)).
In the case of `CN1C(=O)OC2(CCN(CCCS(=O)(=O)c3ccc(F)cc3)CC2)C1=O`, the T/C under setting [1] is 92 % of control, the T/C under setting [2] is 105 % of control and the T/C under setting [3] was 93 % of control.
With `CC(=O)c1ccc2cc(O)ccc2c1`, the T/C (dose: 50.0 mg/kg/injection, schedule: Q04DX003 (ip), vehicle: saline) is 101 % of control; the T/C (dose: 100.0 mg/kg/injection, schedule: Q01DX001 (ip), vehicle: saline) was 97 % of control; the T/C (dose: 100.0 mg/kg/injection, schedule: Q04DX003 (ip), vehicle: saline) is 101 % of control; the T/C (dose: 200.0 mg/kg/injection, schedule: Q01DX001 (ip), vehicle: saline) was 101 % of control; the T/C (dose: 200.0 mg/kg/injection, schedule: Q04DX003 (ip), vehicle: saline) was 103 % of control; the T/C (dose: 400.0 mg/kg/injection, schedule: Q01DX001 (ip), vehicle: saline) is 104 % of control.
Consider `Nc1nc(N)c(N=O)c(Nc2ccc(Br)cc2)n1`, for which the T/C by setting is: (dose: 60.0 mg/kg/injection, schedule: Q01DX Z (ip), vehicle: methylcellulose (MC)) 108 % of control; (dose: 120.0 mg/kg/injection, schedule: Q01DX Z (ip), vehicle: methylcellulose (MC)) 103 % of control.
As for `Cc1ccc(C(=O)CCC(=O)O)cc1`, the T/C under setting [4] was 102 % of control, the T/C under setting [5] was 98 % of control and the T/C under setting [6] was 94 % of control.
Take `COC1=CC2C3=C(C(NC=O)CCc4cc(O)c(OC)c(OC)c43)C2C1=O` (centres undefined): the T/C runs as follows: under setting [4], 101 % of control; under setting [5], 93 % of control; under setting [6], 108 % of control.
Take `O=C(Nc1cccc(Cl)c1)Nc1cccc(Cl)c1`: the T/C (dose: 100.0 mg/kg/injection, schedule: Q01DX009 (ip), vehicle: Klucel (hydroxypropylcellulose) (HPC)) was 94 % of control; the T/C (dose: 100.0 mg/kg/injection, schedule: Q04DX003 (ip), vehicle: Klucel (hydroxypropylcellulose) (HPC)) is 102 % of control; the T/C (dose: 200.0 mg/kg/injection, schedule: Q01DX009 (ip), vehicle: Klucel (hydroxypropylcellulose) (HPC)) is 108 % of control; the T/C (dose: 200.0 mg/kg/injection, schedule: Q04DX003 (ip), vehicle: Klucel (hydroxypropylcellulose) (HPC)) is 93 % of control; the T/C (dose: 400.0 mg/kg/injection, schedule: Q01DX009 (ip), vehicle: Klucel (hydroxypropylcellulose) (HPC)) is 101 % of control; the T/C (dose: 400.0 mg/kg/injection, schedule: Q04DX003 (ip), vehicle: Klucel (hydroxypropylcellulose) (HPC)) was 100 % of control.
Take `COC(=O)C(CSCSC)NC(=O)NC1CCCCC1` (centres undefined): the T/C is 91 % of control (dose: 100.0 mg/kg/injection, schedule: Q01DX009 (ip), vehicle: saline with Tween-80); 102 % of control under setting [4]; 91 % of control (dose: 200.0 mg/kg/injection, schedule: Q01DX009 (ip), vehicle: saline with Tween-80); 89 % of control under setting [5]; 91 % of control (dose: 400.0 mg/kg/injection, schedule: Q01DX009 (ip), vehicle: saline with Tween-80); 91 % of control under setting [6].
In the case of `O=C(OC12CCCC1CC2)c1ccc([N+](=O)[O-])cc1` (centres undefined), the T/C by setting is: under setting [4], 91 % of control; under setting [5], 103 % of control; under setting [6], 100 % of control.
`Cc1c(N)c(C)c(F)c(-c2c(N)c(C)c(N)c(C)c2F)c1N`: the T/C by setting is: under setting [1], 92 % of control; under setting [2], 97 % of control; under setting [3], 104 % of control.
